Experimental data published in US20110046127A1, “Imidazopyridazines for Use as Protein Kinase Inhibitors” (priority 2007, published 2011).

Each molecule was assayed on T1, PIM-1 or PIM-2 (assay: PIM-1 / PIM-2 biochemical assay (ADP Hunter assay kit)). Conditions: tested in either the PIM-1 or the PIM-2 biochemical assay (as appropriate); ATP 100 μM.
T1 construct: fused on or other part: C-terminal histidine tag (PIM-1 enzyme); N-terminal histidine tag (PIM-2 enzyme)
Set-up: species or system human
Excerpt: The biochemical assay to measure PIM-1 activity relies on the ADP Hunter assay kit (DiscoveRx Corp., Cat. # 90-0077), that determines the amount of ADP as direct product of the kinase enzyme activity.
The enzyme has been expressed and purified in-house as a recombinant human protein with a C-terminal histidine tag. The protein is active and stable.
(§1) Assay conditions were as indicated by the kit manufacturers with the following adaptations for the kinase activity step: • Kinase assay buffer and assay volume stay as recommended (15 mM HEPES, pH 7.4, 20 mM NaCl, 1 mM EGTA, 0.02% Tween 20, 10 mM MgCl2 and 0.1 mg/ml bovine γ-globulins/75 μl assay volume) • Incubation time and temperature: 60 min at 30° C. • PIM-1 concentration: 50 pg/μl • ATP concentration: 100 μM • PIM-1 substrate peptide: PIMtide (ARKRRRHPSGPPTA) • Peptide concentration: 60 μM • Positive control for kinase activity inhibition: 1-10 μM Staurosporine • DMSO concentration have to stay below 2% during the kinase reaction
Assays were performed in either 96 or 384-well plates. The final outcome of the coupled reactions provided by the kit is the release of the fluorescent product Resorufin and has been measured with a multilabel HTS counter VICTOR V (PerkinElmer) using an excitation filter at 544 nm and an emission filter at 580 nm.
The biochemical assay to measure PIM-2 activity relies on the ADP Hunter assay kit (DiscoveRx Corp., Cat. # 90-0077), that determines the amount of ADP as direct product of the kinase enzyme activity.
The enzyme has been expressed and purified in-house as a recombinant human protein with a N-terminal histidine tag. The protein is active and stable.
as §1, with “mg/ml bovine γ-globulins/20 μl assay” for “mg/ml bovine γ-globulins/75 μl assay”, “and temperature: 30 min at” for “and temperature: 60 min at”, “C. • PIM-2 concentration: 350” for “C. • PIM-1 concentration: 50”, “PIM-2 concentration: 350 pg/μl •” for “PIM-1 concentration: 50 pg/μl •”, “Peptide concentration: 100 μM •” for “Peptide concentration: 60 μM •”
O=C(Nc1ccccc1)c1cnc2ccc(-c3ccoc3)nn12 [Example 47, 6-Furan-3-yl-imidazo[1,2-b]pyridazine-3-carboxylic acid phenylamide] gave an IC50 of 470 nM.
For Cc1cc2ncc(C(=O)Nc3ccccc3)n2nc1NCc1ccco1 [Example 58, 6-[(Furan-2-ylmethyl)-amino]-7-methyl-imidazo[1,2-b]pyridazine-3-carboxylic acid phenylamide], the IC50 was 300 nM.
In the case of O=C(Nc1ccccc1)c1cnc2ccc(Nc3cccnc3)nn12 [Example 41, 6-(Pyridin-3-ylamino)-imidazo[1,2-b]pyridazine-3-carboxylic acid phenyl-amide], the IC50 is reported as 60 nM.
For Cc1ccc(CNc2nn3c(C(=O)Nc4ccccc4)cnc3cc2C)cc1F [Example 60, 6-(3-Fluoro-4-methyl-benzylamino)-7-methyl-imidazo[1,2-b]pyridazine-3-carboxylic acid phenylamide], the IC50 was 60 nM.
Molecule COc1ccc(CNc2ccc3ncc(C(=O)Nc4ccc(C(=O)O)cc4)n3n2)cc1 [Example 30] has an IC50 of 380 nM.
Cc1cc(NCc2ccc(Cl)c(Cl)c2)nn2c(C(=O)Nc3ccccc3)cnc12 [Example 54, 6-(3,4-Dichloro-benzylamino)-8-methyl-imidazo[1,2-b]pyridazine-3-carboxylic acid phenylamide] was tested, and the IC50 was 70 nM.
O=C(Nc1cnc2ccc(NCc3ccc(F)cc3)nn12)c1cccc(O)c1 [Example 102, N-[6-(4-Fluoro-benzylamino)-imidazo[1,2-b]pyridazin-3-yl]-3-hydroxy-benzamide] gave an IC50 of 2250 nM.
For Cc1cc2ncc(C#Cc3ccccc3)n2nc1NCc1ccc(Cl)c(Cl)c1 [Example 70, (3,4-Dichloro-benzyl)-(7-methyl-3-phenylethynyl-imidazo[1,2-b]pyridazin-6-yl)-amine], the IC50 was 2220 nM.
Molecule CN(Cc1ccc(Cl)c(Cl)c1)c1ccc2ncc(C(=O)Nc3ccccc3)n2n1 [Example 42, 6-[(3,4-Dichloro-benzyl)-methyl-amino]-imidazo[1,2-b]pyridazine-3-carboxylic acid phenylamide] has an IC50 of 60 nM.
O=C(Nc1ccc2[nH]ccc2c1)c1cnc2ccc(NCc3ccc(Cl)c(Cl)c3)nn12 [Example 17, 6-(3,4-Dichloro-benzylamino)-imidazo[1,2-b]pyridazine-3-carboxylic acid (1H-indol-5-yl)-amide] gave an IC50 of 430 nM.
COCCNC(=O)c1cnc2ccc(NCc3ccc(Cl)c(Cl)c3)nn12 [Example 19, 6-(3,4-Dichloro-benzylamino)-imidazo[1,2-b]pyridazine-3-carboxylic acid (2-methoxy-ethyl)-amide] gave an IC50 of 4660 nM.
CC(=O)c1cccc(NC(=O)c2cnc3ccc(NCc4ccc(Cl)c(Cl)c4)nn23)c1 [Example 22, 6-(3,4-Dichloro-benzylamino)-imidazo[1,2-b]pyridazine-3-carboxylic acid (3-acetylphenyl)amide] showed an IC50 of 33000 nM.
Work on O=C(O)c1ccc(NC(=O)c2cnc3ccc(NCc4ccc(Cl)c(Cl)c4)nn23)cc1 [Example 29, 4-{[6-(3,4-Dichloro-benzylamino)-imidazo[1,2-b]pyridazine-3-carbonyl]-amino}-benzoic acid] yielded an IC50 of 260 nM.
COc1ccc(-c2ccc3ncc(C(=O)Nc4ccccc4)n3n2)cc1 [Example 46, 6-(4-Methoxy-phenyl)-imidazo[1,2-b]pyridazine-3-carboxylic acid phenyl-amide] was tested, and the IC50 was 380 nM.
In the case of COc1ccc(NC(=O)c2cnc3ccc(NCc4ccc(S(N)(=O)=O)cc4)nn23)cn1 [Example 27], the IC50 is reported as 1140 nM.
O=C(Nc1ccccc1)c1cnc2ccc(N3Cc4ccccc4C3)nn12 [Example 44, 6-(1,3-Dihydro-isoindol-2-yl)-imidazo[1,2-b]pyridazine-3-carboxylic acid phenylamide] showed an IC50 of 180 nM.
Molecule O=C(Nc1ccccc1)c1cnc2cc(C3CCCC3)c(NCc3ccc(F)cc3)nn12 [Example 68, 7-Cyclopentyl-6-(4-fluoro-benzylamino)-imidazo[1,2-b]pyridazine-3-carboxylic acid phenylamide] has an IC50 of 80 nM.
With CCOC(=O)c1cccc(NC(=O)c2cnc3c(C)cc(NCc4ccc(OC)cc4)nn23)c1 [Example 64, 3-{[6-(4-Methoxy-benzylamino)-8-methyl-imidazo[1,2-b]pyridazine-3-carbonyl]-amino}-benzoic acid ethyl ester] the IC50 was 160 nM.
Molecule CCC(=O)Nc1cnc2ccc(NCc3ccc(F)cc3)nn12 [Example 89, N-[6-(4-Fluoro-benzylamino)-imidazo[1,2-b]pyridazin-3-yl]-propionamide] has an IC50 of 19000 nM.
O=C(Nc1ccccc1)c1cnc2ccc(-c3ccccc3)nn12 [Example 45, 6-Phenyl-imidazo[1,2-b]pyridazine-3-carboxylic acid phenylamide] gave an IC50 of 490 nM.
In the case of O=C(Nc1cnc2ccc(NCc3ccc(F)cc3)nn12)c1ccccc1 [Example 90, N-[6-(4-Fluoro-benzylamino)-imidazo[1,2-b]pyridazin-3-yl]-benzamide], the IC50 is reported as 1150 nM.
Cc1cc2ncc(C(=O)Nc3ccccc3)n2nc1NCc1cccc(F)c1 [Example 61, 6-(3-Fluoro-benzylamino)-7-methyl-imidazo[1,2-b]pyridazine-3-carboxylic acid phenylamide] showed an IC50 of 60 nM.
Work on COc1ccc(CNc2cc(C)c3ncc(C(=O)Nc4cccc(C(=O)O)c4)n3n2)cc1 [Example 65, 3-{[6-(4-Methoxy-benzylamino)-8-methyl-imidazo[1,2-b]pyridazine-3-carbonyl]-amino}-benzoic acid] yielded an IC50 of 19300 nM.
COc1ccc(CNc2ccc3ncc(C(=O)Nc4cccc(C(=O)O)c4)n3n2)cc1 [Example 31, 3-{[6-(4-Methoxy-benzylamino)-imidazo[1,2-b]pyridazine-3-carbonyl]-amino}-benzoic acid] was tested, and the IC50 was 7380 nM.
Cc1cc2ncc(C(=O)Nc3ccccc3)n2nc1NCc1ccc(Cl)c(Cl)c1 [Example 55, 6-(3,4-Dichloro-benzylamino)-7-methyl-imidazo[1,2-b]pyridazine-3-carboxylic acid phenylamide] gave an IC50 of 70 nM.
COc1ccc(C(=O)Nc2cnc3ccc(-n4ccnc4)nn23)cc1 [Example 100, N-(6-Imidazol-1-yl-imidazo[1,2-b]pyridazin-3-yl)-4-methoxy-benzamide] showed an IC50 of 19100 nM.
O=C(Nc1ccccc1)c1cnc2ccc(-n3ccnc3)nn12 [Example 38, 6-Imidazol-1-yl-imidazo[1,2-b]pyridazine-3-carboxylic acid phenylamide] gave an IC50 of 4630 nM.
In the case of COc1ccc(CNc2nn3c(C(=O)Nc4ccccc4)cnc3cc2C2CCCC2)cc1 [Example 69, 7-Cyclopentyl-6-(4-methoxy-benzylamino)-imidazo[1,2-b]pyridazine-3-carboxylic acid phenylamide], the IC50 is reported as 190 nM.
Clc1ccc(CNc2ccc3ncc(CN4CCOCC4)n3n2)cc1Cl [Example 53, (3,4-Dichloro-benzyl)-(3-morpholin-4-ylmethyl-imidazo[1,2-b]pyridazin-6-yl)-amine] was tested, and the IC50 was 33000 nM.
CNC(=O)c1cccc(NC(=O)c2cnc3c(C)cc(NCc4ccc(OC)cc4)nn23)c1 [Example 66, 6-(4-Methoxy-benzylamino)-8-methyl-imidazo[1,2-b]pyridazine-3-carboxylic acid (3-methylcarbamoyl-phenyl)-amide] showed an IC50 of 3130 nM.
O=S(=O)(Nc1cnc2ccc(-c3ccccc3)nn12)c1ccccc1 [Example 86, N-(6-Phenyl-imidazo[1,2-b]pyridazin-3-yl)-benzenesulfonamide] showed an IC50 of 14500 nM.
